The experiment deals with T1, PD-1/PD-L1 (Homo sapiens, UniProt Q9NZQ7).
T1 construct: TVMV protease site linker (C); made in house; host or cells: HEK293T cells
As to the kind of experiment: PD-1/PD-L1 Homogenous Time-Resolved Fluorescence (HTRF) binding assay. Particulars: PD-L1-His 10 nM, PD-1-Ig 20 nM. The method in brief: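 Inhibitors pre-incubated 15 min with PD-L1-His extracellular domain (10 nM final) in dPBS with 0.1% BSA and 0.05% Tween-20, then PD-1-Ig (20 nM final) added for a further 15 min. Read-out by HTRF with europium cryptate anti-Ig (1 nM) and APC anti-His (20 nM). Related pairs: PD-1-Ig/PD-L2-His (20/5 nM), CD80-His/PD-L1-Ig (100/10 nM).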

T1 sequence (Q9NZQ7 18-239): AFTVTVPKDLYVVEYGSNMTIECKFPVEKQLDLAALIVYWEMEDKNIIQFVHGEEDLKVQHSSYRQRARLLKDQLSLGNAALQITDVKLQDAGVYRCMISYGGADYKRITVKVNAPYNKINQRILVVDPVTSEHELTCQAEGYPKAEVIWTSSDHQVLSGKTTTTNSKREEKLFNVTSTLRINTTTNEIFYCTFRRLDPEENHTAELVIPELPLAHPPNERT

As for `Cc1c(COc2cc(OCc3cncc(C#N)c3)c(CN(C)CCc3ncn[nH]3)cc2Cl)cccc1-c1cccc(OCCCN2CC[C@@H](O)C2)c1C` [Example 2509, (R)-5-((2-(((2-(1H-1,2,4-triazol-5-yl)ethyl)(methyl)amino)methyl)-4-chloro-5-((3′-(3-(3-hydroxypyrrolidin-1-yl)propoxy)-2,2′-dimethyl-[1,1′-biphenyl]-3-yl)methoxy)phenoxy)methyl)nicotinonitrile], the IC50 came to 0.2 nM.
Then `Cc1c(COc2cc(OCc3cncc(C#N)c3)c(CN(C)CCc3nc4ccccc4n3C)cc2Cl)cccc1-c1cccc(OCCCN2CC[C@@H](O)C2)c1C` [Example 2510, (R)-5-((4-chloro-5-((3′-(3-(3-hydroxypyrrolidin-1-yl)propoxy)-2,2′-dimethyl-[1,1′-biphenyl]-3-yl)methoxy)-2-((methyl(2-(1-methyl-1H-benzo[d]imidazol-2-yl)ethyl)amino)methyl)phenoxy)methyl)nicotinonitrile], with 3.3 nM; and `Cc1ncsc1CCN(C)Cc1cc(Cl)c(OCc2cccc(-c3cccc(OCCCN4CC[C@@H](O)C4)c3C)c2C)cc1OCc1cncc(C#N)c1` [Example 2511, (R)-5-((4-chloro-5-((3′-(3-(3-hydroxypyrrolidin-1-yl)propoxy)-2,2′-dimethyl-[1,1′-biphenyl]-3-yl)methoxy)-2-((methyl(2-(4-methylthiazol-5-yl)ethyl)amino)methyl)phenoxy)methyl)nicotinonitrile], with 3.3 nM.
`Cc1c(COc2cc(OCc3cncc(C#N)c3)c(CN3CCc4[nH]ncc4C3)cc2Cl)cccc1-c1cccc(OCCCN2CC[C@@H](O)C2)c1C` [Example 2512, (R)-5-((4-chloro-5-((3′-(3-(3-hydroxypyrrolidin-1-yl)propoxy)-2,2′-dimethyl-[1,1′-biphenyl]-3-yl)methoxy)-2-((1,4,6,7-tetrahydro-5H-pyrazolo[4,3-c]pyridin-5-yl)methyl)phenoxy)methyl)nicotinonitrile] had a concentration for half-maximal inhibition (IC50) of 3.9 nM.
Molecule `Cc1c(COc2cc(OCc3cncc(C#N)c3)c(CN3CCC(c4cc[nH]n4)C3)cc2Cl)cccc1-c1cccc(OCCCN2CC[C@@H](O)C2)c1C` (stereo partly drawn) [Example 2513, 5-((2-((3-(1H-pyrazol-3-yl)pyrrolidin-1-yl)methyl)-4-chloro-5-((3′-(3-((R)-3-hydroxypyrrolidin-1-yl)propoxy)-2,2′-dimethyl-[1,1′-biphenyl]-3-yl)methoxy)phenoxy)methyl)nicotinonitrile] registered a 50% inhibitory concentration (IC50) of 3.6 nM.
The value for `Cc1c(COc2cc(OCc3cncc(C#N)c3)c(CNCCc3cc[nH]n3)cc2Cl)cccc1-c1cccc(OCCCN2CC[C@@H](O)C2)c1C` [Example 2514, (R)-5-((2-(((2-(1H-pyrazol-3-yl)ethyl)amino)methyl)-4-chloro-5-((3′-(3-(3-hydroxypyrrolidin-1-yl)propoxy)-2,2′-dimethyl-[1,1′-biphenyl]-3-yl)methoxy)phenoxy)methyl)nicotinonitrile] was 1.9 nM.
As for `Cc1c(COc2cc(OCc3cncc(C#N)c3)c(CN3CCc4[nH]cnc4C3)cc2Cl)cccc1-c1cccc(OCCCN2CC[C@@H](O)C2)c1C` [Example 2515, (R)-5-((4-chloro-5-((3′-(3-(3-hydroxypyrrolidin-1-yl)propoxy)-2,2′-dimethyl-[1,1′-biphenyl]-3-yl)methoxy)-2-((1,4,6,7-tetrahydro-5H-imidazo[4,5-c]pyridin-5-yl)methyl)phenoxy)methyl)nicotinonitrile], the half-inhibitory concentration (IC50) came out at 3.8 nM.
With `Cc1c(COc2cc(OCc3cncc(C#N)c3)c(CNCCc3nc4cc(Cl)ccc4[nH]3)cc2Cl)cccc1-c1cccc(OCCCN2CC[C@@H](O)C2)c1C` [Example 2516, (R)-5-((4-chloro-2-(((2-(5-chloro-1H-benzo[d]imidazol-2-yl)ethyl)amino)methyl)-5-((3′-(3-(3-hydroxypyrrolidin-1-yl)propoxy)-2,2′-dimethyl-[1,1′-biphenyl]-3-yl)methoxy)phenoxy)methyl)nicotinonitrile], the concentration for half-maximal inhibition (IC50) is 4.5 nM.
In turn, `Cc1c(COc2cc(OCc3cncc(C#N)c3)c(CN(C)CCc3nc4cc(Cl)ccc4[nH]3)cc2Cl)cccc1-c1cccc(OCCCN2CC[C@@H](O)C2)c1C` [Example 2517, (R)-5-((4-chloro-2-(((2-(5-chloro-1H-benzo[d]imidazol-2-yl)ethyl)(methyl)amino)methyl)-5-((3′-(3-(3-hydroxypyrrolidin-1-yl)propoxy)-2,2′-dimethyl-[1,1′-biphenyl]-3-yl)methoxy)phenoxy)methyl)nicotinonitrile] registered a half-inhibitory concentration (IC50) of 12.4 nM.
The molecule `Cc1c(COc2cc(OCc3cncc(C#N)c3)c(CN(C)CCc3cc[nH]n3)cc2Cl)cccc1-c1cccc(OCCCN2CC[C@@H](O)C2)c1C` [Example 2518, (R)-5-((2-(((2-(1H-pyrazol-3-yl)ethyl)(methyl)amino)methyl)-4-chloro-5-((3′-(3-(3-hydroxypyrrolidin-1-yl)propoxy)-2,2′-dimethyl-[1,1′-biphenyl]-3-yl)methoxy)phenoxy)methyl)nicotinonitrile] registered an IC50 of 4.4 nM.
`Cc1c(COc2cc(OCc3cncc(C#N)c3)c(CNCCc3ncn[nH]3)cc2Cl)cccc1-c1cccc(OCCCN2CC[C@@H](O)C2)c1C` [Example 2519, (R)-5-((2-(((2-(1H-1,2,4-triazol-5-yl)ethyl)amino)methyl)-4-chloro-5-((3′-(3-(3-hydroxypyrrolidin-1-yl)propoxy)-2,2′-dimethyl-[1,1′-biphenyl]-3-yl)methoxy)phenoxy)methyl)nicotinonitrile] gave a concentration for half-maximal inhibition (IC50) of 1 nM.
Then `Cc1c(COc2cc(OCc3cncc(C#N)c3)c(CNCc3csc(N)n3)cc2Cl)cccc1-c1cccc(OCCCN2CC[C@@H](O)C2)c1C` [Example 2520, (R)-5-((2-((((2-aminothiazol-4-yl)methyl)amino)methyl)-4-chloro-5-((3′-(3-(3-hydroxypyrrolidin-1-yl)propoxy)-2,2′-dimethyl-[1,1′-biphenyl]-3-yl)methoxy)phenoxy)methyl)nicotinonitrile], with 3.1 nM; and `Cc1c(COc2cc(OCc3cncc(C#N)c3)c(CN(C)Cc3csc(N)n3)cc2Cl)cccc1-c1cccc(OCCCN2CC[C@@H](O)C2)c1C` [Example 2521, (R)-5-((2-((((2-aminothiazol-4-yl)methyl)(methyl)amino)methyl)-4-chloro-5-((3′-(3-(3-hydroxypyrrolidin-1-yl)propoxy)-2,2′-dimethyl-[1,1′-biphenyl]-3-yl)methoxy)phenoxy)methyl)nicotinonitrile], with 0.7 nM; and `Cc1onc(-c2ccccc2)c1CNCc1cc(Cl)c(OCc2cccc(-c3cccc(OCCCN4CC[C@@H](O)C4)c3C)c2C)cc1OCc1cncc(C#N)c1` [Example 2522, (R)-5-((4-chloro-5-((3′-(3-(3-hydroxypyrrolidin-1-yl)propoxy)-2,2′-dimethyl-[1,1′-biphenyl]-3-yl)methoxy)-2-((((5-methyl-3-phenylisoxazol-4-yl)methyl)amino)methyl)phenoxy)methyl)nicotinonitrile], with 23.2 nM.
As for `Cc1onc(-c2ccccc2)c1CN(C)Cc1cc(Cl)c(OCc2cccc(-c3cccc(OCCCN4CC[C@@H](O)C4)c3C)c2C)cc1OCc1cncc(C#N)c1` [Example 2523, (R)-5-((4-chloro-5-((3′-(3-(3-hydroxypyrrolidin-1-yl)propoxy)-2,2′-dimethyl-[1,1′-biphenyl]-3-yl)methoxy)-2-((methyl((5-methyl-3-phenylisoxazol-4-yl)methyl)amino)methyl)phenoxy)methyl)nicotinonitrile], the 50% inhibitory concentration (IC50) is 178 nM.
Then `Cc1c(COc2cc(OCc3cncc(C#N)c3)c(CNCc3cn[nH]c3)cc2Cl)cccc1-c1cccc(OCCCN2CC[C@@H](O)C2)c1C` [Example 2524, (R)-5-((2-((((1H-pyrazol-4-yl)methyl)amino)methyl)-4-chloro-5-((3′-(3-(3-hydroxypyrrolidin-1-yl)propoxy)-2,2′-dimethyl-[1,1′-biphenyl]-3-yl)methoxy)phenoxy)methyl)nicotinonitrile], with 5.5 nM; and `Cc1c(COc2cc(OCc3cncc(C#N)c3)c(CN(C)Cc3cn[nH]c3)cc2Cl)cccc1-c1cccc(OCCCN2CC[C@@H](O)C2)c1C` [Example 2525, (R)-5-((2-((((1H-pyrazol-4-yl)methyl)(methyl)amino)methyl)-4-chloro-5-((3′-(3-(3-hydroxypyrrolidin-1-yl)propoxy)-2,2′-dimethyl-[1,1′-biphenyl]-3-yl)methoxy)phenoxy)methyl)nicotinonitrile], with 2.2 nM.
Then `Cc1noc(C)c1CNCc1cc(Cl)c(OCc2cccc(-c3cccc(OCCCN4CC[C@@H](O)C4)c3C)c2C)cc1OCc1cncc(C#N)c1` [Example 2526, (R)-5-((4-chloro-2-((((3,5-dimethylisoxazol-4-yl)methyl)amino)methyl)-5-((3′-(3-(3-hydroxypyrrolidin-1-yl)propoxy)-2,2′-dimethyl-[1,1′-biphenyl]-3-yl)methoxy)phenoxy)methyl)nicotinonitrile], with 3 nM.
`Cc1noc(C)c1CN(C)Cc1cc(Cl)c(OCc2cccc(-c3cccc(OCCCN4CC[C@@H](O)C4)c3C)c2C)cc1OCc1cncc(C#N)c1` [Example 2527, (R)-5-((4-chloro-2-((((3,5-dimethylisoxazol-4-yl)methyl)(methyl)amino)methyl)-5-((3′-(3-(3-hydroxypyrrolidin-1-yl)propoxy)-2,2′-dimethyl-[1,1′-biphenyl]-3-yl)methoxy)phenoxy)methyl)nicotinonitrile] yielded an IC50 of 5.4 nM.
In turn, `Cc1cc(CNCc2cc(Cl)c(OCc3cccc(-c4cccc(OCCCN5CC[C@@H](O)C5)c4C)c3C)cc2OCc2cncc(C#N)c2)no1` [Example 2528, (R)-5-((4-chloro-5-((3′-(3-(3-hydroxypyrrolidin-1-yl)propoxy)-2,2′-dimethyl-[1,1′-biphenyl]-3-yl)methoxy)-2-((((5-methylisoxazol-3-yl)methyl)amino)methyl)phenoxy)methyl)nicotinonitrile] yielded an IC50 of 3.1 nM.

The values above are taken from US20240124417A1, “COMPOUNDS USEFUL AS IMMUNOMODULATORS” (Bristol-Myers Squibb Company, priority 2019, published 2024).
